Results as given in publication PMC9023740, “Mucin-Type O-Glycosylation Proximal to β-Secretase Cleavage Site Affects APP Processing and Aggregation Fate” (Frontiers in Chemistry, 2022).

Tests used:
[1] = biological target: T1, Recombinant human BACE-1 (rhBACE-1) (Homo sapiens, UniProt P56817); experiment: Proteolytic cleavage of APP (glyco)peptides by BACE-1, RP-HPLC peak integration; format: biochemical; conditions: 100 μM substrate, 50 nM rhBACE-1, 0.1 M sodium acetate pH 4.0, 24 h, 37°C, dark; RP-HPLC peak integration at 214 nm, averaged from two injections, SD <5%
T1 construct: purchased R&D Systems #ES004 and #931-AS, respectively (so in the source)
T1 sequence (P56817 46-457 limits assumed): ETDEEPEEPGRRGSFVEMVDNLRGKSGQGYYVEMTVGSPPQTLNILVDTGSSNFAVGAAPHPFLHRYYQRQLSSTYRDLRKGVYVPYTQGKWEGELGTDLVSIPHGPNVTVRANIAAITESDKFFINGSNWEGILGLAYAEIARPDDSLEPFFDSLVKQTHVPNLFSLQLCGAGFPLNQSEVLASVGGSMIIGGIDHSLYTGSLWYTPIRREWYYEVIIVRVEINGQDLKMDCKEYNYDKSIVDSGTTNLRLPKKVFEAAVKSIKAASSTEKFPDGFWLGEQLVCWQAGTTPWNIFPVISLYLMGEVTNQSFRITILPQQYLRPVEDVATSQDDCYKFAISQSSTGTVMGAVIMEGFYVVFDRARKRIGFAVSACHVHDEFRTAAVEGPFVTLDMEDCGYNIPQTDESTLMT
Description: All APP-based substrates were prepared as 10 mM stocks in DMSO. Before proteolysis, the activity of BACE-1 was verified by the reaction with the fluorogenic BACE-1substrate Mca-[…](Dnp)RR-NH2 ([Koike et al., 1999]) as per the manufacturer’s instructions. For the proteolysis assay, APP-based substrates were diluted in BACE-1 activity buffer (0.1 M sodium acetate, pH 4.0) to the final assay concentration of 100 μM. BACE-1 was diluted to 50 nM final concentration. Reactions were incubated for 24 h at 37°C in the dark. After the incubation period, the enzyme cleavage solutions containing APP-based substrates and BACE-1 were analyzed using the analytical RP-HPLC method on the Aeris C18 column with 0.1% TFA in water (A) and 0.1% TFA in acetonitrile (B) as eluents and 0–60% B as the elution gradient over 30 min with a flow rate of 0.8 ml/min, and detection at 214 nm or the Vydac Denali C18 column with 0.1% TFA in water (A) and 0.1% TFA in acetonitrile (B) as eluents and 0–60% B as the elution gradient over 30 min with a flow rate of 1 ml/min, and detection at 214 nm. The identity of intact and cleaved (N- and C-terminal) fragments of (glyco)peptides in the absence and presence of BACE-1 (β-secretase) was confirmed by MALDI-TOF and their percentages were evaluated by the integration of the RP-HPLC peaks (averaged from two injections).
Glycosylation can alter substrate recognition and impact enzyme activity in either a positive (enhancing) or negative (inhibiting) manner ([Goettig, 2016]; [Goth et al., 2018]). The mucin-type O-linked glycosylation of a protein may not only affect its conformation but also affect its transport and localization in the cell ([Matsuura et al., 1989]; [Chen et al., 2002]). Proteases are highly regulated by post-translational modifications and drive fate, localization, and activity of many proteins ([Bond, 2019]). Certain mutations can also affect the subcellular localization of the cleavage event by crucial proteases and mediate a different cellular mechanism for the protein ([Haass et al., 1995]). […] Therefore, similar enzyme cleavage assays with BACE-1 were set up to explore the effect of the Swedish mutation, length of the amino acid sequence, glycan position and valency on the proteolytic susceptibility of 3–12. BACE1 produced two fragments upon cleavage of (glyco)peptides, for which yields were determined after 24 h treatment. The yields of intact peptide and fragments were evaluated by the RP-HPLC peaks integration (Table 3, and the Supplementary Material S20–S32).
3. Enzyme cleavage assays with APP (glyco)peptides 3-12 by RP-HPLC and MALDI-TOF MS
For the BACE1 enzyme cleavage assay, APP-based (glyco)peptide substrates were diluted in BACE1 activity buffer and incubated with BACE1 for 24 h at 37 °C in the dark. After the incubation period, the enzyme cleavage solutions containing APP-based (glyco)peptide substrates and BACE1 were analyzed using analytical RP-HPLC.
RP-HPLC gradient on Phenomenex Aeris Peptide C18 column (150 x 4.6 mm, 3.6 µm, 100Å):
Eluents were 0.1% TFA in water (A) and 0.1% TFA in acetonitrile (B). The elution gradient was 0-60%B in 30 minutes with a flow rate of 0.8 mL/min. Detection was at λ = 214 nm.
S*/T*= Ser(-α-GalNAc) 1/Thr(-α-GalNAc) 2
(a) APP665-680, 3 in activity buffer
(b) APP665-680 (3) + BACE1 in activity buffer […]

[2] = CD spectroscopy, secondary structure content by BeStSel; format: physicochemical; conditions: for RC (%) random coil / α-H (%) α-helix / β-AP (%) anti-parallel β-sheet / β-P (%) parallel β-sheet / β-T (%) β-turn: CD, BeStSel, 0.065 mg/ml, 25°C
Description: All (glyco)peptides were analyzed for their secondary structure using circular dichroism (CD) spectroscopy on a Jasco-810 spectropolarimeter (Jasco, Easton, MD) in three solvent systems: water, 10 mM sodium phosphate buffer (pH 7.4), and 50% trifluoroethanol (TFE) in water (v/v) mixture. The CD spectra were recorded using a quartz cell of 1 mm optical path length over a wavelength range of […] with a scanning speed of 100 nm/min and a response time of 4 s at 25°C. A concentration of 0.065 mg/ml, determined using the analytical RP-HPLC method, gave the […] signal-to-noise ratio for all (glyco)peptides. All spectra were baseline-corrected to account for the signal contribution from solvent and then converted into molar ellipticity (deg cm^2 dmol^−1) ([Sreerama and Woody, 2000]). Lastly, the percentages of all secondary structures were determined using the BeStSel method ([Micsonai et al., 2018]; [Singh et al., 2021]).
To study the role of O-glycosylation on the conformation of APP glycopeptides, circular dichroism (CD) spectroscopy was used to probe the secondary structure in three different solvents, water, sodium phosphate buffer (10 mM, pH 7.4), and 50% trifluoroethanol (TFE) in water (v/v) (Figure 1). The spectra were further analysed for secondary structure estimations by Beta Structure Selection (BeStSel) method, specifically designed for the analysis of beta sheet-rich proteins (Table 2) ([Micsonai et al., 2015], [2018]).

[3] = (B) 10 mM sodium phosphate buffer, pH 7.4

Compound | BACE-1 activity, Cleaved (%) [1] | BACE-1 activity, Recovered (%) [1] | also measured
CC[C@H](C)[C@H](NC(=O)[C@@H](N)CCC(=O)O)C(=O)N[C@@H](CO)C(=O)N[C@@H](CCC(=O)O)C(=O)N[C@H](C(=O)N[C@@H](CC(N)=O)C(=O)N[C@@H](CC(C)C)C(=O)N[C@@H](CC(=O)O)C(=O)N[C@@H](C)C(=O)N[C@@H](CCC(=O)O)C(=O)N[C@@H](Cc1ccccc1)C(=O)N[C@@H](CCCNC(=N)N)C(=O)N[C@@H](Cc1c[nH]cn1)C(=O)N[C@@H](CC(=O)O)C(=O)N[C@@H](CO)C(=O)NCC(N)=O)C(C)C [compound 5] | 96.2% | 3.82% | 
CC[C@H](C)[C@H](NC(=O)[C@@H](N)CCC(=O)O)C(=O)N[C@@H](CO[C@H]1O[C@H](CO)[C@H](O)[C@H](O)[C@H]1NC(C)=O)C(=O)N[C@@H](CCC(=O)O)C(=O)N[C@H](C(=O)N[C@@H](CCCCN)C(=O)N[C@@H](CCSC)C(=O)N[C@@H](CC(=O)O)C(=O)N[C@@H](C)C(=O)N[C@@H](CCC(=O)O)C(=O)N[C@@H](Cc1ccccc1)C(=O)N[C@@H](CCCNC(=N)N)C(=O)N[C@@H](Cc1c[nH]cn1)C(=O)N[C@@H](CC(=O)O)C(=O)N[C@@H](CO)C(=O)NCC(N)=O)C(C)C [compound 4] | 1.40% | 98.6% | 
CC[C@H](C)[C@H](NC(=O)[C@@H](N)CCC(=O)O)C(=O)N[C@@H](CO[C@H]1O[C@H](CO)[C@H](O)[C@H](O)[C@H]1NC(C)=O)C(=O)N[C@@H](CCC(=O)O)C(=O)N[C@H](C(=O)N[C@@H](CC(N)=O)C(=O)N[C@@H](CC(C)C)C(=O)N[C@@H](CC(=O)O)C(=O)N[C@@H](C)C(=O)N[C@@H](CCC(=O)O)C(=O)N[C@@H](Cc1ccccc1)C(=O)N[C@@H](CCCNC(=N)N)C(=O)N[C@@H](Cc1c[nH]cn1)C(=O)N[C@@H](CC(=O)O)C(=O)N[C@@H](CO)C(=O)NCC(N)=O)C(C)C [compound 6] | 93.0% | 7.02% | 
IKT*EEIS*EVKM∼DAEFRHDSG [compound 9, native APP 661-680 glycopeptide with O-GalNAc on Thr^663 and Ser^667] | 4.12% | 95.9% | RC (%) random coil ([2]; (A) water): 22.4%; α-H (%) α-helix ([2]; (A) water): 12.8%; β-AP (%) anti-parallel β-sheet ([2]; (A) water): 48.2%; β-P (%) parallel β-sheet ([2]; (A) water): 0.0%; β-T (%) β-turn ([2]; (A) water): 16.6%; RC (%) random coil [2, 3]: 48.7%; α-H (%) α-helix [2, 3]: 9.5%; β-AP (%) anti-parallel β-sheet [2, 3]: 24.6%; β-P (%) parallel β-sheet [2, 3]: 0.0%; β-T (%) β-turn [2, 3]: 17.1%; RC (%) random coil ([2]; (C) TFE/water = 1:1 (v/v)): 0.0%; α-H (%) α-helix ([2]; (C) TFE/water = 1:1 (v/v)): 94.4%; β-AP (%) anti-parallel β-sheet ([2]; (C) TFE/water = 1:1 (v/v)): 0.0%; β-P (%) parallel β-sheet ([2]; (C) TFE/water = 1:1 (v/v)): 0.0%; β-T (%) β-turn ([2]; (C) TFE/water = 1:1 (v/v)): 5.6%; β-structure (anti-parallel β-sheet, parallel β-sheet, and β-turn) ([2]; water, sum of BeStSel contents): 64.8%
CC[C@H](C)[C@H](NC(=O)[C@@H](N)CCC(=O)O)C(=O)N[C@@H](CO)C(=O)N[C@@H](CCC(=O)O)C(=O)N[C@H](C(=O)N[C@@H](CCCCN)C(=O)N[C@@H](CCSC)C(=O)N[C@@H](CC(=O)O)C(=O)N[C@@H](C)C(=O)N[C@@H](CCC(=O)O)C(=O)N[C@@H](Cc1ccccc1)C(=O)N[C@@H](CCCNC(=N)N)C(=O)N[C@@H](Cc1c[nH]cn1)C(=O)N[C@@H](CC(=O)O)C(=O)N[C@@H](CO)C(=O)NCC(N)=O)C(C)C [compound 3] | 4.48% | 95.5% | 
CC[C@H](C)[C@H](N)C(=O)N[C@@H](CCCCN)C(=O)N[C@H](C(=O)N[C@@H](CCC(=O)O)C(=O)N[C@@H](CCC(=O)O)C(=O)N[C@H](C(=O)N[C@@H](CO)C(=O)N[C@@H](CCC(=O)O)C(=O)N[C@H](C(=O)N[C@@H](CCCCN)C(=O)N[C@@H](CCSC)C(=O)N[C@@H](CC(=O)O)C(=O)N[C@@H](C)C(=O)N[C@@H](CCC(=O)O)C(=O)N[C@@H](Cc1ccccc1)C(=O)N[C@@H](CCCNC(=N)N)C(=O)N[C@@H](Cc1c[nH]cn1)C(=O)N[C@@H](CC(=O)O)C(=O)N[C@@H](CO)C(=O)NCC(N)=O)C(C)C)[C@@H](C)CC)[C@@H](C)O [compound 7] | 3.40% | 96.6% | 

More lines, main results first:

BACE-1 activity, Cleaved (%) [1] | BACE-1 activity, Recovered (%) [1] | Compound | also measured
96.1% | 3.90% | CC[C@H](C)[C@H](N)C(=O)N[C@@H](CCCCN)C(=O)N[C@H](C(=O)N[C@@H](CCC(=O)O)C(=O)N[C@@H](CCC(=O)O)C(=O)N[C@H](C(=O)N[C@@H](CO[C@H]1O[C@H](CO)[C@H](O)[C@H](O)[C@H]1NC(C)=O)C(=O)N[C@@H](CCC(=O)O)C(=O)N[C@H](C(=O)N[C@@H](CC(N)=O)C(=O)N[C@@H](CC(C)C)C(=O)N[C@@H](CC(=O)O)C(=O)N[C@@H](C)C(=O)N[C@@H](CCC(=O)O)C(=O)N[C@@H](Cc1ccccc1)C(=O)N[C@@H](CCCNC(=N)N)C(=O)N[C@@H](Cc1c[nH]cn1)C(=O)N[C@@H](CC(=O)O)C(=O)N[C@@H](CO)C(=O)NCC(N)=O)C(C)C)[C@@H](C)CC)[C@@H](C)O[C@H]1O[C@H](CO)[C@H](O)[C@H](O)[C@H]1NC(C)=O [compound 12] | 
98.1% | 1.90% | CC[C@H](C)[C@H](N)C(=O)N[C@@H](CCCCN)C(=O)N[C@H](C(=O)N[C@@H](CCC(=O)O)C(=O)N[C@@H](CCC(=O)O)C(=O)N[C@H](C(=O)N[C@@H](CO)C(=O)N[C@@H](CCC(=O)O)C(=O)N[C@H](C(=O)N[C@@H](CC(N)=O)C(=O)N[C@@H](CC(C)C)C(=O)N[C@@H](CC(=O)O)C(=O)N[C@@H](C)C(=O)N[C@@H](CCC(=O)O)C(=O)N[C@@H](Cc1ccccc1)C(=O)N[C@@H](CCCNC(=N)N)C(=O)N[C@@H](Cc1c[nH]cn1)C(=O)N[C@@H](CC(=O)O)C(=O)N[C@@H](CO)C(=O)NCC(N)=O)C(C)C)[C@@H](C)CC)[C@@H](C)O[C@H]1O[C@H](CO)[C@H](O)[C@H](O)[C@H]1NC(C)=O [compound 11] | 
79.7% | 20.3% | CC[C@H](C)[C@H](N)C(=O)N[C@@H](CCCCN)C(=O)N[C@H](C(=O)N[C@@H](CCC(=O)O)C(=O)N[C@@H](CCC(=O)O)C(=O)N[C@H](C(=O)N[C@@H](CO)C(=O)N[C@@H](CCC(=O)O)C(=O)N[C@H](C(=O)N[C@@H](CC(N)=O)C(=O)N[C@@H](CC(C)C)C(=O)N[C@@H](CC(=O)O)C(=O)N[C@@H](C)C(=O)N[C@@H](CCC(=O)O)C(=O)N[C@@H](Cc1ccccc1)C(=O)N[C@@H](CCCNC(=N)N)C(=O)N[C@@H](Cc1c[nH]cn1)C(=O)N[C@@H](CC(=O)O)C(=O)N[C@@H](CO)C(=O)NCC(N)=O)C(C)C)[C@@H](C)CC)[C@@H](C)O [compound 10] | 
